Reference: patent US8674113B2, “Compounds” (Boehringer Ingelheim International GmbH, priority 2010, dated 2014)

What was measured:
[1] = molecular target: recombinant human mPGES-1 (Homo sapiens (Human), UniProt O14684); assay: mPGES-1 enzyme assay (HTRF detection of PGE2); assay type: biochemical; conditions: recombinant human mPGES-1 microsomes, PGH2 2 μM, 60 seconds; read-out: mPGES-1 inhibitory effect IC50 in the enzyme assay
Summary of the method: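 Microsomes from E. coli expressing recombinant human mPGES-1 (~0.5 μg protein/well) in 0.1 M phosphate pH 7.4 with 2.5 mM GSH, pre-incubated with compound 25 min at room temperature. PGH2 (2 μM final) added, reaction stopped with FeCl2 after 60 s; PGE2 quantified by HTRF (665/620 ratio) against a calibration curve, IC50 by nonlinear regression after background subtraction.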

mPGES-1 in A549 cells = mPGES-1 in A549 cells (Homo sapiens (Human), UniProt O14684); assay: A549 cell-based assay (PGE2 formation, 50% human serum); conditions: IL-1β 5 ng/ml, 10 nM arachidonic acid, 20-24 h, read-out: mPGES-1 inhibitory effect IC50 in the cell assay
Chain of mPGES-1 in A549 cells (O14684 whole entry): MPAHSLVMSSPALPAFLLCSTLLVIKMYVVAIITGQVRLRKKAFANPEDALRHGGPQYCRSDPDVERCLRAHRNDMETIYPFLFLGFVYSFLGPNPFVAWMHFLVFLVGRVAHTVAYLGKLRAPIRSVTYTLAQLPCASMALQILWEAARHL
Summary of the method: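 A549 cells in F-12K with 50% human serum were stimulated 20-24 h with 5 ng/ml IL-1β and 10 nM arachidonic acid in presence of compound or vehicle. PGE2 in the cell-free medium was measured by HTRF, normalised to vehicle (100%). IC50 from 6-8 point titrations.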

Chain of recombinant human mPGES-1 (O14684 whole entry): as above

SMILES	IC50 [1] [nM]	IC50 (mPGES-1 in A549 cells) [nM]
Cn1c(Nc2c(Cl)ccc(CNC(=O)C(C)(C)C(F)(F)F)c2Cl)nc2cc(C(=O)N[C@H]3CC[C@H](C(F)(F)F)CC3)c(N3CC[C@@H](F)C3)cc21 [Example 128]	2	1
Cn1c(Nc2c(Cl)ccc(CNC(=O)C(C)(C)C)c2Cl)nc2cc(C(=O)N[C@H]3CC[C@H](C(F)(F)F)CC3)c(N3C[C@@H]4C[C@H]3CO4)cc21 [Example 129]	3	5
Cn1c(Nc2c(Cl)ccc(CNC(=O)C(C)(C)C)c2Cl)nc2cc(C(=O)N[C@H]3CC[C@H](C(F)(F)F)CC3)c(N3CCS(=O)(=O)CC3)cc21 [Example 130]	2	7
Cn1c(Nc2c(Cl)ccc(CNC(=O)C(C)(C)C)c2Cl)nc2cc(C(=O)N[C@H]3CC[C@H](C(F)(F)F)CC3)c(N3CCNC(C(F)(F)F)C3)cc21 (stereo partly drawn) [Example 131]	2	1
Cn1c(Nc2c(Cl)ccc(CNC(=O)C(C)(C)C)c2Cl)nc2cc(C(=O)N[C@H]3CC[C@H](C(F)(F)F)CC3)c(N3CCN(CC(F)(F)F)CC3)cc21 [Example 132]	5	1.5
Cn1c(Nc2c(Cl)ccc(CNC(=O)C(C)(C)C)c2Cl)nc2cc(C(=O)N[C@H]3CC[C@H](C(F)(F)F)CC3)c(N3CCn4ncnc4C3)cc21 [Example 133]	3	10
Cn1c(Nc2c(Cl)ccc(CNC(=O)C(C)(C)C)c2Cl)nc2cc(C(=O)N[C@H]3CC[C@H](C(F)(F)F)CC3)c(N3CC4CCC(C3)O4)cc21 [Example 134]	2	< 1
Cn1c(Nc2c(Cl)ccc(CNC(=O)C(C)(C)C)c2Cl)nc2cc(C(=O)NCCC(F)(F)F)c(N3CC4CC4C3)cc21 (stereo not drawn) [Example 135]	3	5
Cn1c(Nc2c(Cl)ccc(CNC(=O)C(C)(C)C)c2Cl)nc2cc(C(=O)Nc3ccc(OC(F)(F)F)cc3)c(N3CCCC(C(F)(F)F)C3)cc21 (stereo not drawn) [Example 136]	3	1
CN(CC(F)F)c1cc2c(cc1C(=O)Nc1ccc(OC(F)(F)F)cc1)nc(Nc1c(Cl)ccc(CNC(=O)C(C)(C)C)c1Cl)n2C [Example 137]	3	< 1
Cn1c(Nc2c(Cl)ccc(CNC(=O)C(C)(C)C)c2F)nc2cc(C(=O)Nc3ccc(OC(F)(F)F)cc3)c(N3CC[C@@H](F)C3)cc21 [Example 138]	2	3
Cn1c(Nc2c(Cl)ccc(CNC(=O)C(C)(C)C)c2Cl)nc2cc(C(=O)Nc3ccc(OC(F)(F)F)cc3)c(N3CC[C@H](F)C3)cc21 [Example 139]	3	< 1
Cn1c(Nc2c(Cl)ccc(CNC(=O)C(C)(C)F)c2Cl)nc2cc(C(=O)Nc3ccc(OC(F)(F)F)cc3)c(N3CCC(F)(F)CC3)cc21 [Example 140]	2	5
Cn1c(Nc2c(Cl)ccc(CNC(=O)C(C)(C)C)c2Cl)nc2cc(C(=O)Nc3ccc(OC(F)(F)F)cc3)c(N3CCOCC3)cc21 [Example 141]	2	1
Cc1c(N2CC3CC3C2)c(C(=O)N[C@H]2CC[C@H](C(F)(F)F)CC2)cc2nc(Nc3c(Cl)ccc(CNC(=O)C(C)(C)C)c3Cl)n(C)c12 (stereo partly drawn) [Example 144, N-(trans-4-Trifluoromethyl-cyclohexyl)-2-{2,6-dichloro-3-[(2,2-dimethyl-propionylamino)-methyl]-phenylamino}-6-[3-aza-bicyclo[3.1.0]hex-3-yl]-1,7-dimethyl-1H-benzimidazole-5-carboxylic acid amide]	5	1
Cn1c(Nc2c(Cl)ccc(CNC(=O)C(C)(C)C)c2Cl)nc2cc(C(=O)N[C@H]3CC[C@H](C(F)(F)F)CC3)c(N3CC[C@@H](F)C3)c(F)c21 [Example 145, (R)—N-(trans-4-Trifluoromethyl-cyclohexyl)-2-{2,6-dichloro-3-[(2,2-dimethyl-propionylamino)-methyl]-phenylamino}-6-[3-fluoro-pyrrolidinyl]-1-methyl-7-fluoro-1H-benzimidazole-5-carboxylic acid amide]	3	2.5
Cn1c(Nc2c(Cl)ccc(CNC(=O)C(C)(C)F)c2Cl)nc2cc(C(=O)NCCC(F)(F)F)c(N3CCC(O)CC3)cc21 [Example 148]	3	20
CN(c1cc2c(cc1C(=O)NCCC(F)(F)F)nc(Nc1c(Cl)ccc(CNC(=O)C(C)(C)F)c1Cl)n2C)C1CCC1 [Example 149]	3	3
Cn1c(Nc2c(Cl)ccc(CNC(=O)C(C)(C)F)c2Cl)nc2cc(C(=O)NCCC(F)(F)F)c(N3CCCC(C(F)(F)F)C3)cc21 (stereo not drawn) [Example 150]	2	2
Cn1c(Nc2c(Cl)ccc(CNC(=O)C(C)(C)F)c2Cl)nc2cc(C(=O)Nc3ccc(F)c(Cl)c3)c(N3CCC(F)(F)C3)cc21 [Example 154]	2	< 1

SMILES	IC50 [1] [nM]	IC50 (mPGES-1 in A549 cells) [nM]
Cn1c(Nc2c(Cl)ccc(CNC(=O)C3(C)CC3)c2Cl)nc2cc(C(=O)Nc3ccc(OC(F)(F)F)cc3)c(N3CC[C@@H](F)C3)cc21 [Example 156]	2	2
Cc1nc(C(F)(F)F)c(CNC(=O)c2cc3nc(Nc4c(Cl)ccc(CNC(=O)C(C)(C)C)c4Cl)n(C)c3cc2N2CCC(C(F)(F)F)CC2)s1 [Example 158]	4	4
Cn1c(Nc2c(Cl)ccc(CNC(=O)C(C)(C)C)c2Cl)nc2cc(C(=O)Nc3cc(C(C)(C)C)on3)c(N3CCC(C(F)(F)F)CC3)cc21 [Example 159]	3	4
Cn1c(Nc2c(Cl)ccc(CNC(=O)C(C)(C)C)c2Cl)nc2cc(C(=O)Nc3cc(C(C)(C)CO)no3)c(N3CCC(C(F)(F)F)CC3)cc21 [Example 160]	4	3
Cn1c(Nc2c(Cl)ccc(CNC(=O)C(C)(C)C)c2Cl)nc2cc(C(=O)Nc3nc(C(F)(F)F)cs3)c(N3CCC(C(F)(F)F)CC3)cc21 [Example 161]	3	3
Cn1c(Nc2c(Cl)ccc(CNC(=O)C(C)(C)C)c2Cl)nc2cc(C(=O)Nc3nnc(C(C)(C)C)s3)c(N3CCC(C(F)(F)F)CC3)cc21 [Example 162]	3	2
CC(C)(C)C(=O)NCc1ccc(Cl)c(Nc2nc3cc(C(=O)N[C@H]4CC[C@H](C(F)(F)F)CC4)c(N4CC5CC5C4)cc3n2C2(C(C)(C)O)CC2)c1Cl (stereo partly drawn) [Example 164]	4	7
CC(C)(O)Cn1c(Nc2c(Cl)ccc(CNC(=O)C(C)(C)C)c2Cl)nc2cc(C(=O)N[C@H]3CC[C@H](C(F)(F)F)CC3)c(N3CCC(C(F)(F)F)CC3)cc21 [Example 165]	2	3
CC(C)(O)Cn1c(Nc2c(Cl)ccc(CNC(=O)C(C)(C)C)c2Cl)nc2cc(C(=O)Nc3ccc(OC(F)(F)F)cc3)c(N3CCOCC3)cc21 [Example 166, N-(4-Trifluoromethoxy-phenyl)-2-{2,6-dichloro-3-[(2,2-dimethyl-propionylamino)-methyl]-phenylamino}-6-[morpholinyl]-1-(2-hydroxy-2-methyl-propyl)-1H-benzimidazole-5-carboxylic acid amide]	2	12
Cn1c(Nc2c(Cl)ccc(CNC(=O)c3ccc(O)cc3F)c2Cl)nc2cc(C(=O)NCCC(F)(F)F)c(N3CCC(C(F)(F)F)CC3)cc21 [Example 173]	2	2
Cn1c(Nc2c(Cl)ccc(CNC(=O)C(C)(C)CO)c2Cl)nc2cc(C(=O)NCCC(F)(F)F)c(N3CCC(C(F)(F)F)CC3)cc21 [Example 175]	4	7
Cn1c(Nc2c(Cl)ccc(CNC(=O)c3c(N)cccc3Cl)c2Cl)nc2cc(C(=O)NCCC(F)(F)F)c(N3CCC(C(F)(F)F)CC3)cc21 [Example 176]	4	34
Cn1c(Nc2c(Cl)ccc(CNC(=O)c3ccc(N)cc3Cl)c2Cl)nc2cc(C(=O)NCCC(F)(F)F)c(N3CCC(C(F)(F)F)CC3)cc21 [Example 177]	2	3
Cn1c(Nc2c(Cl)ccc(CNC(=O)c3cccc(O)c3)c2Cl)nc2cc(C(=O)NCCC(F)(F)F)c(N3CCC(C(F)(F)F)CC3)cc21 [Example 178]	5	28
Cn1c(Nc2c(Cl)ccc(CNC(=O)c3c(O)cccc3F)c2Cl)nc2cc(C(=O)NCCC(F)(F)F)c(N3CCC(C(F)(F)F)CC3)cc21 [Example 179]	2	> 100
Cn1c(Nc2c(Cl)ccc(CNC(=O)c3nccs3)c2Cl)nc2cc(C(=O)NCCC(F)(F)F)c(N3CCC(C(F)(F)F)CC3)cc21 [Example 182]	2	7
Cn1c(Nc2c(Cl)ccc(CNC(=O)C(C)(C)F)c2Cl)nc2cc(C(=O)Nc3ccc(F)c(Cl)c3)c(N3CCC(C(F)(F)F)CC3)cc21 [Example 231, N-(3-Chloro-4-fluoro-phenyl)-2-{2,6-dichloro-3-[(2-fluoro-2-methyl-propionylamino)-methyl]-phenylamino}-6-[4-trifluoromethyl-piperidinyl]-1-methyl-1H-benzimidazole-5-carboxylic acid amide]	2	1.1
Cn1c(Nc2c(Cl)ccc(CNC(=O)C(C)(C)C(F)(F)F)c2Cl)nc2cc(C(=O)Nc3ccc(F)c(Cl)c3)c(N3CCC(C(F)(F)F)CC3)cc21 [Example 232]	1.7	1.4
Cn1c(Nc2c(Cl)ccc(CNC(=O)[C@@](C)(O)C(F)(F)F)c2Cl)nc2cc(C(=O)Nc3ccc(F)c(Cl)c3)c(N3CCC(C(F)(F)F)CC3)cc21 [Example 233]	3.9	1
